Key:
[1] = test system: alveolar bone of rats (artificial periodontal pockets); assay: Regeneration of the periodontal tissue in rats (Example 3); type: in vivo, Wister male rats; conditions: approx. 0.1 ml injected into gingival crevices everyday, up to 3 weeks; light microscope
Protocol: Next, to confirm the effect of the prepared polyphosphate-collagen complex in regenerating the periodontal tissue, an experiment for the regeneration of the periodontal tissue was performed using rats. Wister male rats (8 weeks old; 18 rats in total) were anesthetized. Then, using a ½ round bar, approximately 2 mm portions were removed from the buccal alveolar bone crest of the mandibular first and second molars, and artificial periodontal pockets (gingival crevices) were formed. In the treated group (9 rats), approximately 0.1 ml of the polyphosphate-collagen complexes prepared in Example 2 was injected using a syringe into the thus formed gingival crevices. In the comparison group (9 rats), only the collagen was injected. The injection procedure was performed everyday from the day following the operation to prepare the gingival crevice, and continued for 3 weeks at the longest.
The rats treated for a certain period were euthanized by inhalation anesthesia (enflurane), and the tissues were fixed by perfusion fixation. Perfusion fixation was performed by letting 300 ml of physiological saline and then 10% neutral buffered formalin solution (pH 7.4, 500 ml) to flow through the blood vessel. […] In addition, the area of the regenerated alveolar bone was measured as the area of bone formation by calculating the sum of the bone areas in the sections with image processing.

[2] = test system: alveolar bone of rats (artificial periodontal pockets); assay: Regeneration of the periodontal tissue in rats, influence of polyphosphate chain length (Example 4); type: in vivo, Wister male rats; conditions: measured at 15 days after operation; for area of the regenerated alveolar bone: approx. 0.1 ml injected into gingival crevices once a day for 14 days
Protocol: Next, an experiment of the regeneration of the periodontal tissue in rats was performed using the 3 prepared types of polyphosphate-collagen complexes. In a manner similar to Example 3, Wister male rats (8 weeks old) were anesthetized. Then, using a ½ round bar, approximately 2 mm portions were removed from the buccal alveolar bone crest of the mandibular first and second molars, and artificial periodontal pockets (gingival crevices) were formed. In the treated group, approximately 0.1 ml of either one type of the above polyphosphate-collagen complexes was injected using a syringe into the thus formed gingival crevices. The treated groups were: treated group 1 that was treated with the polyphosphate-collagen complex containing polyphosphates having an average chain length of 15; treated group 2 that was treated with the polyphosphate-collagen complex containing polyphosphates having an average chain length of 35; and treated group 3 that was treated with the polyphosphate-collagen complex containing polyphosphates having an average chain length of 75. The comparison groups were: comparison group 1 that was treated only with collagen and comparison group 2 that was treated with a mixed solution of a sodium phosphate buffer and collagen. Injection (approximately 0.1 ml) into the gingival crevices of each group was performed similarly to that for the treated groups. For all the groups, 3 rats were used per group. In addition, the injection was performed once a day and everyday from the day following the operation to prepare the gingival crevice, and was continued for 14 days.
After the above treatment, at 15 days after the operation to prepare the gingival crevice, tissue sections (samples) were prepared in a manner similar to that in Example 3 from the rats of each group, and then the area of the formed alveolar bone was measured. The areas of the regenerated alveolar bones as measured for rat individuals included in 3 treated groups and 2 comparison groups are as shown in Table 1.

collagen [Comparison group 1]
staining of the tissues: regeneration of alveolar bone (FIG. 2) [1]: no increase was observed in the alveolar bone
area of the regenerated alveolar bone ([2]; Individual 1): 0.5422 mm^2
area of the regenerated alveolar bone ([2]; Individual 2): 0.5909 mm^2
area of the regenerated alveolar bone ([2]; Individual 3): 0.6569 mm^2
area of the regenerated alveolar bone, Average ([2]; average of 3 rats per group, approx. 0.1 ml injected once a day for 14 days): 0.5967 mm^2

From US20040002444A1, “Polyphosphate-water soluble collagen complexes and process for preparation thereof” (Toshikazu SHIBA, priority 2002, published 2004)
